The values below are quoted from earlier work in patent publication US12532880B2, “Cryopreservation of cell monolayers” (priority 2018, dated 2026).

The test system of series [1] is porcine corneal endothelium. Particulars: endothelium cryopreserved in the presence of 2% CS.
The subject of series [2] is intact human articular cartilage. The settings on record: chondroitin sulfate added to the vitrification solution.

Take chondroitin sulfate [CS]: the “Loss of viability in post-thaw culture” value in series [1] was 33%. Further, the Cell recovery in series [2] is 75.4%.
